pIC50: −log10 of the molar value.
Tested on: 855422-203-R-J1-PDC complex spheroids, viability
Experiment: Anticancer human tumor 855422-203-R-J1-PDC patient-derived bladder carcinoma cell line growth inhibition [CLK]
Details: for pIC50: curve of first compound; for viability, T/C: stronger effect = lower value
Outline: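 Patient-derived tumor cells grown as complex spheroids with HUVEC endothelial cells and mesenchymal stem cells, treated with drug combinations. Concentrations descend in half-log steps from near clinical Cmax, or from 10 microM if Cmax unknown.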

[1] = second compound 0.0316 µM, first compound 0.0316 µM
[2] = second compound 0.0316 µM, first compound 0.1 µM
[3] = second compound 0.0316 µM, first compound 0.316 µM
[4] = second compound 0.0316 µM, first compound 1 µM
[5] = second compound 0.0316 µM, first compound 3.16 µM
[6] = second compound 0.0316 µM, first compound 10 µM
[7] = second compound 0.1 µM, first compound 0.0316 µM
[8] = second compound 0.1 µM, first compound 0.1 µM
[9] = second compound 0.1 µM, first compound 0.316 µM
[10] = second compound 0.1 µM, first compound 1 µM
[11] = second compound 0.1 µM, first compound 3.16 µM
[12] = second compound 0.1 µM, first compound 10 µM
[13] = second compound 0.316 µM, first compound 0.0316 µM
[14] = second compound 0.316 µM, first compound 0.1 µM
[15] = second compound 0.316 µM, first compound 0.316 µM
[16] = second compound 0.316 µM, first compound 1 µM
[17] = second compound 0.316 µM, first compound 3.16 µM
[18] = second compound 0.316 µM, first compound 10 µM
[19] = second compound 1 µM, first compound 0.0316 µM
[20] = second compound 1 µM, first compound 0.1 µM
[21] = second compound 1 µM, first compound 0.316 µM
[22] = second compound 1 µM, first compound 1 µM
[23] = second compound 1 µM, first compound 3.16 µM
[24] = second compound 1 µM, first compound 10 µM
[25] = second compound 3.16 µM, first compound 0.0316 µM
[26] = second compound 3.16 µM, first compound 0.1 µM
[27] = second compound 3.16 µM, first compound 0.316 µM
[28] = second compound 3.16 µM, first compound 1 µM
[29] = second compound 3.16 µM, first compound 3.16 µM
[30] = second compound 3.16 µM, first compound 10 µM
[31] = second compound 10 µM, first compound 0.0316 µM
[32] = second compound 10 µM, first compound 0.1 µM
[33] = second compound 10 µM, first compound 0.316 µM
[34] = second compound 10 µM, first compound 1 µM
[35] = second compound 10 µM, first compound 3.16 µM
[36] = second compound 10 µM, first compound 10 µM
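Also: spheroids exposed to drugs for seven days before readout.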
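For viability, T/C in this document: 100% = DMSO vehicle control wells.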

C=C(F)C(=O)N1CCN(c2nc(OCC3CCCN3C)nc3c2CCN(c2cccc4cccc(Cl)c24)C3)CC1CC#N (stereo unspecified) + CN1CCN(c2cc(C(=O)Nc3cc4cc(-c5cnn(C)c5)ccc4cn3)ccn2)CC1 was tested, and the pIC50 (second compound 0.0316 µM) was 5.61, the pIC50 (second compound 0.1 µM) was 5.70 and the pIC50 (second compound 0.316 µM) was > 7.50. The pIC50 (second compound 1 µM) was > 7.50, the pIC50 (second compound 3.16 µM) was > 7.50 and the pIC50 (second compound 10 µM) was > 7.50. For the same compound, the viability, T/C [1] was 108%, the viability, T/C [2] was 110% and the viability, T/C [3] was 122%. For the same compound, the viability, T/C [4] was 115%, the viability, T/C [5] was 32% and the viability, T/C [6] was 0.22%. For the same compound, the viability, T/C [7] was 89.1%, the viability, T/C [8] was 86% and the viability, T/C [9] was 87.3%. It also gave a viability, T/C [10] of 95.1%, a viability, T/C [11] of 22.8% and a viability, T/C [12] of 0.8%. The viability, T/C [13] was 14.2%, the viability, T/C [14] was 14.4% and the viability, T/C [15] was 14.8%. For the same compound, the viability, T/C [16] was 14.6%, the viability, T/C [17] was 4.45% and the viability, T/C [18] was 0.07%. The viability, T/C [19] was 0.29%, the viability, T/C [20] was 0.34% and the viability, T/C [21] was 0.28%. The viability, T/C [22] was 0.26%, the viability, T/C [23] was 0.12% and the viability, T/C [24] was 1.08%. The viability, T/C [25] was 0.68%, the viability, T/C [26] was 0.91% and the viability, T/C [27] was 0.57%. It also gave a viability, T/C [28] of 0.77%, a viability, T/C [29] of 1.08% and a viability, T/C [30] of 0.11%. For the same compound, the viability, T/C [31] was 0.54%, the viability, T/C [32] was 0.51% and the viability, T/C [33] was 0.41%. For the same compound, the viability, T/C [34] was 0.42%, the viability, T/C [35] was 0.61% and the viability, T/C [36] was 0.22%.

In the case of O=c1[nH]cc(F)c(=O)[nH]1 + CNC(=O)c1ccc(Nc2nc(OC3CCCC3)c3c(-c4ccc5nc(C)oc5c4)c[nH]c3n2)c(OC)c1, the pIC50 (second compound 0.0316 µM) was 5.04, the pIC50 (second compound 0.1 µM) was 6.28 and the pIC50 (second compound 0.316 µM) was > 7.50. The pIC50 (second compound 1 µM) was > 7.50, the pIC50 (second compound 3.16 µM) was > 7.50 and the pIC50 (second compound 10 µM) was > 7.50. For the same compound, the viability, T/C [1] was 135%, the viability, T/C [2] was 119% and the viability, T/C [3] was 98.4%. The viability, T/C [4] was 72.3%, the viability, T/C [5] was 67.5% and the viability, T/C [6] was 47.9%. The viability, T/C [7] was 65.5%, the viability, T/C [8] was 65.7% and the viability, T/C [9] was 56.4%. The viability, T/C [10] was 40.3%, the viability, T/C [11] was 40.8% and the viability, T/C [12] was 44.9%. For the same compound, the viability, T/C [13] was 26.4%, the viability, T/C [14] was 22.8% and the viability, T/C [15] was 22.1%. It also gave a viability, T/C [16] of 18.4%, a viability, T/C [17] of 19.7% and a viability, T/C [18] of 18.9%. For the same compound, the viability, T/C [19] was 23.3%, the viability, T/C [20] was 23.9% and the viability, T/C [21] was 27.6%. The viability, T/C [22] was 17.3%, the viability, T/C [23] was 14.5% and the viability, T/C [24] was 17.9%. The viability, T/C [25] was 25.1%, the viability, T/C [26] was 23.8% and the viability, T/C [27] was 22.1%. The viability, T/C [28] was 16.3%, the viability, T/C [29] was 12.7% and the viability, T/C [30] was 14.7%. The viability, T/C [31] was 21.5%, the viability, T/C [32] was 23.3% and the viability, T/C [33] was 20.2%. For the same compound, the viability, T/C [34] was 17.9%, the viability, T/C [35] was 14.7% and the viability, T/C [36] was 13.6%.

For COc1cccc2c1C(=O)c1c(O)c3c(c(O)c1C2=O)CC(O)(C(=O)CO)CC3OC1CC(N)C(O)C(C)O1 (stereo unspecified) + CN1CCN(c2cc(C(=O)Nc3cc4cc(-c5cnn(C)c5)ccc4cn3)ccn2)CC1, the pIC50 (second compound 0.0316 µM) was > 7.50, the pIC50 (second compound 0.1 µM) was > 7.50 and the pIC50 (second compound 0.316 µM) was > 7.50. For the same compound, the pIC50 (second compound 1 µM) was > 7.50, the pIC50 (second compound 3.16 µM) was > 7.50 and the pIC50 (second compound 10 µM) was > 7.50. The viability, T/C [1] was 8.97%, the viability, T/C [2] was 3.16% and the viability, T/C [3] was 0.95%. It also gave a viability, T/C [4] of 0.46%, a viability, T/C [5] of 0.59% and a viability, T/C [6] of 1.01%. For the same compound, the viability, T/C [7] was 8.75%, the viability, T/C [8] was 1.14% and the viability, T/C [9] was 0.71%. For the same compound, the viability, T/C [10] was 1.31%, the viability, T/C [11] was 0.35% and the viability, T/C [12] was 0.34%. The viability, T/C [13] was 1.19%, the viability, T/C [14] was 1.5% and the viability, T/C [15] was 0.36%. The viability, T/C [16] was 0.28%, the viability, T/C [17] was 0.35% and the viability, T/C [18] was 0.27%. It also gave a viability, T/C [19] of 0.21%, a viability, T/C [20] of 0.29% and a viability, T/C [21] of 0.23%. The viability, T/C [22] was 0.31%, the viability, T/C [23] was 0.39% and the viability, T/C [24] was 0.81%. The viability, T/C [25] was 0.29%, the viability, T/C [26] was 0.57% and the viability, T/C [27] was 0.22%. For the same compound, the viability, T/C [28] was 0.22%, the viability, T/C [29] was 0.42% and the viability, T/C [30] was 0.22%. The viability, T/C [31] was 0.09%, the viability, T/C [32] was 0.17% and the viability, T/C [33] was 1.68%. The viability, T/C [34] was 0.13%, the viability, T/C [35] was 0.76% and the viability, T/C [36] was 1.02%.

From PubChem BioAssay AID2060609 (Molecular Pharmacology Branch, DTP, NCI, 2025)
